Test systems include UACC-257 melanoma; COLO 205 colon; HCT-15 colon; DU-145 prostate; TK-10 renal; BT-549 breast; LOX IMVI melanoma; HS 578T breast; SF-295 CNS; HOP-62 NSCLC; MDA-N; ACHN renal; A549 NSCLC; M14 melanoma; MOLT-4 leukemia; HOP-92 NSCLC.
Common to all, as to experiment: NCI-60 cell line screen, 48 h

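Where inhibition never reached the appropriate level, the endpoint shown equals the highest concentration tested. Otherwise, values were interpolated linearly from a five-concentration, 48-hour dose response in 96-well plates. The concentration for full growth arrest is given as TGI.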

In the case of `CC(C)(C)OC(=O)NC12C3C4C1C1C2C3C41NC(=O)OC(C)(C)C` (stereo unspecified), the TGI in the assay with UACC-257 melanoma, in the assay with COLO 205 colon, in the assay on HCT-15 colon, in the assay on DU-145 prostate, in the assay with TK-10 renal and with BT-549 breast was more than 100 µM in each case. In addition, the TGI in the assay on LOX IMVI melanoma, in the assay with HS 578T breast, in the assay on SF-295 CNS, in the assay with HOP-62 NSCLC, in the assay on MDA-N and with ACHN renal was more than 100 µM each time. Also, the TGI in the assay with A549 NSCLC is more than 100 µM; in the assay on M14 melanoma it was more than 100 µM; in the assay with MOLT-4 leukemia, 40.4 µM; in the assay with HOP-92 NSCLC, more than 100 µM.

The values are drawn from PubChem BioAssay (NCI).
